In the NIST ThermoML archive (doi:10.1016/j.fluid.2006.06.017):

Key:
[1] = refractive index (Na D-line) (dimensionless); conditions: 298.15 K; 101.33 kPa; Liquid; Standard Abbe refractometry
[2] = Liquid; for mass density: 298.15 K, 101.33 kPa; for vapor or sublimation pressure: Ebulliometric method (Recirculating still)

CCCCO [butan-1-ol]
Conditions | mass density [kg/m3] | refractive index
[1] | – | 1.3976
[2] | 805.65 | –

[2]
Conditions | vapor or sublimation pressure [kPa]
351.18 K | 20
390.75 K | 101.3

CCCOCCC [dipropyl ether]
Conditions | mass density [kg/m3] | refractive index
[1] | – | 1.3784
[2] | 741.81 | –

[2]
Conditions | vapor or sublimation pressure [kPa]
302.6 K | 10.47
306.36 K | 12.43
310.41 K | 14.95
313.39 K | 16.91
315.97 K | 18.97
317.33 K | 20
318.45 K | 20.97
320.69 K | 22.93
323.79 K | 25.95
326.58 K | 28.97
329.15 K | 31.95
331.52 K | 34.95
333.76 K | 37.95
335.79 K | 40.9
337.8 K | 43.95
339.62 K | 46.85
341.27 K | 49.7
343.07 K | 52.91
345.22 K | 56.95
347.19 K | 60.85
349.07 K | 64.87
351.36 K | 69.9
353.45 K | 74.84
355.48 K | 79.91
357.37 K | 84.8
359.21 K | 89.75
360.93 K | 94.65
363.16 K | 101.3

CCCO [propan-1-ol]
Conditions | mass density [kg/m3] | refractive index
[1] | – | 1.3836
[2] | 799.62 | –

[2]
Conditions | vapor or sublimation pressure [kPa]
332.63 K | 20
369.75 K | 101.3
